# Data from paper PMC11110727, “Exploiting thiol-functionalized benzosiloxaboroles for achieving diverse substitution patterns – synthesis, characterization and biological evaluation of promising antibacterial agents” (RSC Medicinal Chemistry, 2024).
# Columns and labels:
# P. aeruginosa ATCC 27853 = test: Antibacterial activity: MIC/MBC, MIC with PAβN, disc-diffusion; type: cell-based; conditions: Pseudomonas aeruginosa, ATCC27853; P. aeruginosa ATCC 27853; read-out: MIC
# Protocol: (§1) Direct antimicrobial activity was determined against the following standard strains: (1) Gram-positive cocci: methicillin-sensitive Staphylococcus aureus ATCC 6538P (MSSA), methicillin-resistant S. aureus subsp. aureus ATCC 43300 (MRSA), S. epidermidis ATCC 12228, Enterococcus faecium ATCC 6057, E. faecalis ATCC 29212, Bacillus subtilis ATCC 6633; (2) Gram-negative bacteria from Enterobacteriales order: Klebsiella pneumoniae ATCC 13883, Escherichia coli ATCC 25922, Enterobacter cloacae DSM 6234, Proteus mirabilis ATCC 12453, Serratia marcescens ATCC 13880; (3) Gram-negative non-fermentative rods: Acinetobacter baumannii ATCC 19606, Pseudomonas aeruginosa ATCC 27853, Stenotrophomonas maltophilia ATCC 12714, S. maltophilia ATCC 13637, Burkholderia cepacia ATCC 25416, Bordetella bronchiseptica ATCC 4617; (4) yeasts: Candida albicans ATCC 90028, C. krusei ATCC 6258, C. parapsilosis ATCC 22019, C. tropicalis (Castellani) Berkhout ATCC 750, C. tropicalis IBA 171, C. guilliermondii IBA 155, and Saccharomyces cerevisiae ATCC 9763. Moreover, 5 clinical strains of methicillin-resistant S. aureus were also included: NMI 664 K, NMI 1576 K, NMI 1712 K, NMI 1991 K, and NMI 2541 K. All strains were stored at −80 °C. Prior to testing, each bacterial strain was subcultured twice on tryptic soy agar TSA (bioMerieux) medium and yeast strains on Sabouraud dextrose agar (bioMerieux) for 24–48 h at 30 °C to ensure viability. The antimicrobial activity was evaluated as previously described[26] by the disc-diffusion method and the MIC determination assays according to the EUCAST (ref. [71] and [72]) and CLSI (ref. [53] and [73]) recommendations. Assessment of bactericidal (MBC) and fungicidal (MFC) activities was performed according to the CLSI recommendations.[54,74] […] The new benzosiloxaboroles were dissolved in DMSO (Sigma).
# (§2) Considering that the MDR efflux pumps often contribute to Gram-negative rod resistance, the MIC values of studied agents, with or without the pump inhibitor, PAβN (20 μg mL^−1) (Sigma), were determined.[75] The MIC was determined using Mueller–Hinton II broth medium (MHB) (Becton Dickinson) by the broth microdilution method, according to the CLSI guideliness.[53] To minimize the influence of PAβN on the destabilization of bacterial cell covers, the tests were conducted in the presence of 1 mM MgSO4 (Sigma).[76] At least a 4-fold reduction in the MIC value after the addition of PAβN was considered significant.[56,77]
# C. tropicalis IBA 171 = test: Antifungal activity: MIC/MFC, disc-diffusion; type: cell-based; conditions: Candida tropicalis, IBA171; read-out: MIC
# Protocol: (§3) Direct antimicrobial activity was determined against the following standard strains: (1) Gram-positive cocci: methicillin-sensitive Staphylococcus aureus ATCC 6538P (MSSA), methicillin-resistant S. aureus subsp. aureus ATCC 43300 (MRSA), S. epidermidis ATCC 12228, Enterococcus faecium ATCC 6057, E. faecalis ATCC 29212, Bacillus subtilis ATCC 6633; (2) Gram-negative bacteria from Enterobacteriales order: Klebsiella pneumoniae ATCC 13883, Escherichia coli ATCC 25922, Enterobacter cloacae DSM 6234, Proteus mirabilis ATCC 12453, Serratia marcescens ATCC 13880; (3) Gram-negative non-fermentative rods: Acinetobacter baumannii ATCC 19606, Pseudomonas aeruginosa ATCC 27853, Stenotrophomonas maltophilia ATCC 12714, S. maltophilia ATCC 13637, Burkholderia cepacia ATCC 25416, Bordetella bronchiseptica ATCC 4617; (4) yeasts: Candida albicans ATCC 90028, C. krusei ATCC 6258, C. parapsilosis ATCC 22019, C. tropicalis (Castellani) Berkhout ATCC 750, C. tropicalis IBA 171, C. guilliermondii IBA 155, and Saccharomyces cerevisiae ATCC 9763. Moreover, 5 clinical strains of methicillin-resistant S. aureus were also included: NMI 664 K, NMI 1576 K, NMI 1712 K, NMI 1991 K, and NMI 2541 K. All strains were stored at −80 °C. Prior to testing, each bacterial strain was subcultured twice on tryptic soy agar TSA (bioMerieux) medium and yeast strains on Sabouraud dextrose agar (bioMerieux) for 24–48 h at 30 °C to ensure viability. The antimicrobial activity was evaluated as previously described[26] by the disc-diffusion method and the MIC determination assays according to the EUCAST (ref. [71] and [72]) and CLSI (ref. [53] and [73]) recommendations. Assessment of bactericidal (MBC) and fungicidal (MFC) activities was performed according to the CLSI recommendations.[54,74] The following reference agents were used: fluconazole (in the case of fungi), linezolid (for Gram-positive bacteria), and nitrofurantoin (for Gram-negative rods). The new benzosiloxaboroles were dissolved in DMSO (Sigma).
# [1] = test system: C. guilliermondii IBA 155; test: Antifungal activity: MIC/MFC, disc-diffusion; type: cell-based; conditions: for MIC: Meyerozyma guilliermondii, IBA155, read-out: MIC
# Protocol: as §3
# [2] = test system: C. parapsilosis ATCC 22019; test: Antifungal activity: MIC/MFC, disc-diffusion; type: cell-based; conditions: Lodderomyces parapsilosis, ATCC22019; read-out: MIC
# Protocol: as §3
# C. tropicalis ATCC 750 = test: Antifungal activity: MIC/MFC, disc-diffusion; type: cell-based; conditions: Candida tropicalis, ATCC750; read-out: MIC
# Protocol: as §3
# C. albicans ATCC 90028 = test: Antifungal activity: MIC/MFC, disc-diffusion; type: cell-based, Candida albicans; conditions: for diameter of inhibition zone: C. albicans ATCC 90028, (-) = zone not observed, paper discs 9 mm; for MIC: Candida albicans, ATCC90028, read-out: MIC
# Protocol: as §3
# [3] = test system: S. maltophilia ATCC 12714; test: Antibacterial activity: MIC/MBC, MIC with PAβN, disc-diffusion; type: cell-based, Stenotrophomonas maltophilia; conditions: S. maltophilia ATCC 12714; for MIC: Stenotrophomonas maltophilia, ATCC12714, read-out: MIC
# Protocol: as §1, §2
# [4] = test system: S. maltophilia ATCC 13637; test: as above; type: cell-based, Stenotrophomonas maltophilia; conditions: S. maltophilia ATCC 13637; for MIC: Stenotrophomonas maltophilia, ATCC13637, read-out: MIC; for -fold reduction of MIC in the presence of PAβN: PAβN 20 μg mL^−1, MHB + 1 mM MgSO4
# Protocol: as §1, §2
# E. cloacae DSM 6234 = test: as above; type: cell-based, Enterobacter cloacae; conditions: E. cloacae DSM 6234; for MIC: Enterobacter cloacae, DSM6234, read-out: MIC
# Protocol: as §1, §2
# S. cerevisiae ATCC 9763 = test: Antifungal activity: MIC/MFC, disc-diffusion; type: cell-based, Saccharomyces cerevisiae; conditions: for diameter of inhibition zone: (-) = zone not observed, paper discs 9 mm; for MIC: read-out: MIC
# Protocol: as §3
# B. cepacia ATCC 25416 = test: Antibacterial activity: MIC/MBC, disc-diffusion; type: cell-based, Burkholderia cepacia; conditions: Burkholderia cepacia, ATCC25416; B. cepacia ATCC 25416; read-out: MIC
# Protocol: as §1, §2
# [5] = Saccharomyces cerevisiae, ATCC9763
# [6] = PAβN 20 μg mL^−1, MHB + 1 mM MgSO4
Compound,MIC (P. aeruginosa ATCC 27853),MIC (C. tropicalis IBA 171),MIC [1],MIC [2],MIC (C. tropicalis ATCC 750),diameter of inhibition zone (C. albicans ATCC 90028),MIC (C. albicans ATCC 90028),MIC [3],MIC [4],MIC (E. cloacae DSM 6234),diameter of inhibition zone (S. cerevisiae ATCC 9763; S. cerevisiae ATCC 9763),MIC (S. cerevisiae ATCC 9763; [5]),MIC (B. cepacia ATCC 25416),"diameter of inhibition zone ([1]; C. guilliermondii IBA 155, (-) = zone not observed, paper discs 9 mm)","-fold reduction of MIC in the presence of PAβN [3, 6]",-fold reduction of MIC in the presence of PAβN [4],-fold reduction of MIC in the presence of PAβN (E. cloacae DSM 6234; [6]),"MFC (S. cerevisiae ATCC 9763; Saccharomyces cerevisiae, ATCC9763, S. cerevisiae ATCC 9763)"
"C[Si]1(C)OB(O)c2cc(F)c(S)c(F)c21 [Compound 1e, 5,7-Difluoro-6-mercapto-1,1-dimethylbenzo[c][1,2,5]oxasilaborol-3(1H)-ol]",> 400 µg/mL,200 µg/mL,> 400 µg/mL,400 µg/mL,400 µg/mL,15 mm,100 µg/mL,> 400 µg/mL,> 400 µg/mL,> 400 µg/mL,17 mm,200 µg/mL,> 400 µg/mL,,,,,
"C[Si]1(C)OB(O)c2ccc(S)c(F)c21 [Compound 2e, 7-Fluoro-6-mercapto-1,1-dimethylbenzo[c][1,2,5]oxasilaborol-3(1H)-ol]",> 100 µg/mL,> 100 µg/mL,> 100 µg/mL,> 100 µg/mL,> 100 µg/mL,,> 100 µg/mL,> 100 µg/mL,> 100 µg/mL,> 100 µg/mL,,> 100 µg/mL,> 100 µg/mL,,,,,
"CC(=O)CCSc1c(F)cc2c(c1F)[Si](C)(C)OB2O [Compound 3, 4-((5,7-Difluoro-3-hydroxy-1,1-dimethyl-1,3-dihydrobenzo[c][1,2,5]oxasilaborol-6-yl)thio)butan-2-one]",> 400 µg/mL,400 µg/mL,200 µg/mL,100 µg/mL,> 400 µg/mL,,> 400 µg/mL,200 µg/mL,400 µg/mL,> 400 µg/mL,,400 µg/mL,> 400 µg/mL,,,,,
"COC(=O)CCSc1ccc2c(c1F)[Si](C)(C)OB2O [Compound 4, Methyl 3-((7-fluoro-3-hydroxy-1,1-dimethyl-1,3-dihydrobenzo[c][1,2,5]oxasilaborol-6-yl)thio)propanoate]",> 400 µg/mL,> 400 µg/mL,400 µg/mL,400 µg/mL,> 400 µg/mL,12 mm,> 400 µg/mL,> 400 µg/mL,> 400 µg/mL,> 400 µg/mL,32 mm,12.5 µg/mL,> 400 µg/mL,12 mm,2 -fold,2 -fold,8 -fold,400 µg/mL
"C[Si]1(C)OB(O)c2cc(F)c(SCCC(=O)ON3C(=O)CCC3=O)c(F)c21 [Compound 5, 2,5-Dioxopyrrolidin-1-yl 3-((5,7-difluoro-3-hydroxy-1,1-dimethyl-1,3-dihydrobenzo-[c][1,2,5]oxasilaborol-6-yl)thio)propanoate]",> 400 µg/mL,> 400 µg/mL,> 400 µg/mL,> 400 µg/mL,> 400 µg/mL,,> 400 µg/mL,> 400 µg/mL,> 400 µg/mL,> 400 µg/mL,,> 400 µg/mL,> 400 µg/mL,,,,,
"C[Si]1(C)OB(O)c2cc(F)c(SCCC#N)c(F)c21 [Compound 6, 3-((5,7-Difluoro-3-hydroxy-1,1-dimethyl-1,3-dihydrobenzo[c][1,2,5]oxasilaborol-6-yl)thio)propanenitrile]",> 400 µg/mL,> 400 µg/mL,> 400 µg/mL,> 400 µg/mL,> 400 µg/mL,,> 400 µg/mL,> 400 µg/mL,> 400 µg/mL,> 400 µg/mL,,> 400 µg/mL,> 400 µg/mL,,,2 -fold,,
"C[Si]1(C)OB(O)c2cc(F)c(S(=O)(=O)N3CCOCC3)c(F)c21 [Compound 29, 5,7-Difluoro-1,1-dimethyl-6-(morpholinosulfonyl)benzo[c][1,2,5]oxasilaborol-3(1H)-ol]",> 400 µg/mL,,,,,,,> 400 µg/mL,> 400 µg/mL,> 400 µg/mL,,,> 400 µg/mL,,,,,
